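1) Cells in 96-well plates. 2) Compound, 48 h, 5 concentrations. 3) Linear interpolation between surrounding doses. 4) Unreached endpoint = highest concentration. Abbreviation: GI50, concentration required for 50% inhibition of growth.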 Active and inactive are the calls of the source. Cut-off read from the data, not from the text of the source: active = GI50 up to about 1.1 µM and inactive = higher.
Tests used:
Assay in all cases: inhibition of tumour cell growth, NCI panel, 48 h
NCI-H226 = test system: NCI-H226
CAKI-1 = test system: CAKI-1
SN12C = test system: SN12C
XF498 = test system: XF498
OVCAR-5 = test system: OVCAR-5
TK-10 = test system: TK-10
SK-OV-3 = test system: SK-OV-3
SW-620 = test system: SW-620
SNB-75 = test system: SNB-75
EKVX = test system: EKVX
KM12 = test system: KM12
DLD-1 = test system: DLD-1
SF-295 = test system: SF-295
U-251 = test system: U-251
786-0 = test system: 786-0
HOP-62 = test system: HOP-62
HOP-18 = test system: HOP-18

Measured: GI50

N#CC(C(=O)CCCC(=O)Nc1ccccc1[N+](=O)[O-])c1c(Cl)cccc1Cl (stereo unspecified)
inactive: NCI-H226 > 100 µM | CAKI-1 > 100 µM | SN12C > 100 µM | XF498 > 100 µM | OVCAR-5 > 100 µM | TK-10 > 100 µM | SK-OV-3 > 100 µM | SW-620 > 100 µM | SNB-75 > 100 µM | EKVX > 100 µM | KM12 > 100 µM | DLD-1 > 100 µM | SF-295 > 100 µM | U-251 > 100 µM | 786-0 > 100 µM | HOP-62 > 100 µM | HOP-18 31 µM

O=C(O)Cc1ccc2c(c1O)C(=O)c1c(ccc(CC(=O)O)c1O)C2=O
inactive: NCI-H226 > 100 µM | CAKI-1 > 100 µM | SN12C > 100 µM | XF498 > 100 µM | OVCAR-5 > 100 µM | TK-10 > 100 µM | SK-OV-3 > 100 µM | SW-620 > 100 µM | SNB-75 > 100 µM | EKVX > 100 µM | KM12 > 100 µM | DLD-1 > 100 µM | SF-295 > 100 µM | U-251 > 100 µM | 786-0 > 100 µM | HOP-62 > 100 µM | HOP-18 > 100 µM

COC(=O)C12C3C=CC(O3)C1C1C=CC2O1 (stereo unspecified)
inactive: NCI-H226 > 100 µM | SN12C > 100 µM | XF498 > 100 µM | OVCAR-5 > 100 µM | TK-10 > 100 µM | SK-OV-3 > 100 µM | SW-620 > 100 µM | EKVX > 100 µM | KM12 > 100 µM | DLD-1 > 100 µM | SF-295 > 100 µM | U-251 > 100 µM | 786-0 > 100 µM | HOP-18 > 100 µM

CC(CC(=O)Nc1ccc(NC(=O)CC(C)/N=N\C(N)=S)cc1)/N=N\C(N)=S (stereo unspecified)
inactive: NCI-H226 > 100 µM | CAKI-1 > 100 µM | SN12C > 100 µM | XF498 > 100 µM | OVCAR-5 > 100 µM | TK-10 > 100 µM | SNB-75 > 100 µM | EKVX > 100 µM | KM12 > 100 µM | DLD-1 > 100 µM | SF-295 > 100 µM | 786-0 > 100 µM | HOP-62 > 100 µM | HOP-18 > 100 µM

Cc1cc(NS(=O)(=O)c2ccc(Nc3c4ccccc4nc4c(C(=O)Nc5ccc(S(=O)(=O)N=C(N)N)cc5)cccc34)cc2)no1
inactive: CAKI-1 > 100 µM | SN12C > 100 µM | XF498 > 100 µM | OVCAR-5 > 100 µM | TK-10 > 100 µM | SK-OV-3 > 100 µM | SW-620 > 100 µM | SNB-75 > 100 µM | EKVX > 100 µM | KM12 > 100 µM | DLD-1 > 100 µM | SF-295 > 100 µM | U-251 > 100 µM | 786-0 > 100 µM | HOP-62 > 100 µM | HOP-18 > 100 µM

Cc1c(OCCCOc2ccc3c(=O)cc(-c4ccccc4)oc3c2C)ccc2c(=O)cc(-c3ccccc3)oc12
inactive: CAKI-1 > 100 µM | XF498 > 100 µM | OVCAR-5 > 100 µM | TK-10 > 100 µM | SK-OV-3 > 100 µM | SW-620 > 100 µM | EKVX > 100 µM | KM12 > 100 µM | DLD-1 > 100 µM | SF-295 > 100 µM | U-251 > 100 µM | 786-0 > 100 µM | HOP-62 61.1 µM | HOP-18 > 100 µM

Cc1ccccc1C(=O)c1cc(O)ccc1O
inactive: NCI-H226 > 100 µM | CAKI-1 > 100 µM | SN12C > 100 µM | XF498 > 100 µM | OVCAR-5 > 100 µM | TK-10 > 100 µM | SK-OV-3 > 100 µM | SW-620 37.1 µM | SNB-75 76.2 µM | EKVX > 100 µM | KM12 43 µM | DLD-1 55.7 µM | SF-295 > 100 µM | U-251 50.7 µM | 786-0 > 100 µM | HOP-62 > 100 µM | HOP-18 > 100 µM

CC1=Nc2c(O)nc(S)nc2NC(c2ccc(Cl)c(Cl)c2)C1 (stereo unspecified)
inactive: NCI-H226 22.6 µM | CAKI-1 30.3 µM | SN12C 20.1 µM | XF498 > 65.8 µM | OVCAR-5 > 100 µM | TK-10 > 55.5 µM | SK-OV-3 32.1 µM | SW-620 23.5 µM | SNB-75 80.9 µM | EKVX 28.9 µM | KM12 17.7 µM | DLD-1 31.6 µM | SF-295 20.1 µM | U-251 17.3 µM | 786-0 17.7 µM | HOP-62 46.3 µM | HOP-18 > 89.1 µM

Cc1ccc(S(=O)(=O)O/N=C2\CCC\C2=C/c2ccccc2)cc1
inactive: NCI-H226 18.5 µM | CAKI-1 17.6 µM | SN12C 45 µM | XF498 18.5 µM | OVCAR-5 23 µM | TK-10 16.6 µM | SK-OV-3 63.4 µM | SW-620 29.6 µM | SNB-75 20.2 µM | EKVX 19.6 µM | KM12 17.6 µM | DLD-1 19.1 µM | SF-295 22.8 µM | U-251 31.6 µM | 786-0 25.4 µM | HOP-62 36.6 µM | HOP-18 20.3 µM

OCC1CC2CC1C1(C2)OCCO1 (stereo unspecified)
inactive: NCI-H226 > 100 µM | CAKI-1 > 100 µM | SN12C > 100 µM | XF498 > 100 µM | OVCAR-5 > 100 µM | TK-10 > 100 µM | SK-OV-3 > 100 µM | SW-620 > 100 µM | SNB-75 > 100 µM | EKVX > 100 µM | KM12 > 100 µM | DLD-1 > 100 µM | SF-295 > 100 µM | U-251 > 100 µM | 786-0 > 100 µM | HOP-62 > 100 µM | HOP-18 > 100 µM

CC(C)c1ccc(/C=C/c2cc(C(=O)NNC(=O)NC3CCCCC3)nc(S)n2)cc1
inactive: NCI-H226 > 100 µM | CAKI-1 > 100 µM | SN12C > 100 µM | XF498 > 100 µM | OVCAR-5 > 100 µM | TK-10 > 100 µM | SK-OV-3 > 100 µM | SW-620 > 100 µM | SNB-75 > 100 µM | EKVX > 100 µM | KM12 > 100 µM | DLD-1 > 100 µM | SF-295 > 100 µM | U-251 > 100 µM | 786-0 > 100 µM | HOP-62 > 100 µM | HOP-18 > 100 µM

O=Cc1[nH]c2ccccc2c1Br
inactive: NCI-H226 29.8 µM | CAKI-1 > 100 µM | SN12C 22.6 µM | XF498 30.1 µM | OVCAR-5 98.4 µM | TK-10 36.6 µM | SK-OV-3 20.8 µM | SW-620 34.6 µM | SNB-75 19.2 µM | EKVX 35.9 µM | KM12 26.3 µM | DLD-1 22.6 µM | SF-295 38.4 µM | U-251 21.6 µM | 786-0 28 µM | HOP-62 18 µM | HOP-18 27.7 µM

OCC(O)C(O)c1nn(-c2ccccc2)c2nc3cc(Cl)c(Cl)cc3nc12 (stereo unspecified)
inactive: NCI-H226 21.4 µM | CAKI-1 16.6 µM | SN12C 63.5 µM | XF498 28.5 µM | OVCAR-5 14.8 µM | TK-10 16.7 µM | SK-OV-3 30.6 µM | SW-620 28.6 µM | SNB-75 21.8 µM | EKVX 26.2 µM | KM12 20.8 µM | DLD-1 26.1 µM | SF-295 31.4 µM | U-251 29.1 µM | 786-0 18.8 µM | HOP-62 47.5 µM | HOP-18 26.7 µM

CC[P+]1(CC)CCCC1
inactive: CAKI-1 > 100 µM | SN12C > 100 µM | XF498 > 100 µM | OVCAR-5 > 100 µM | TK-10 > 100 µM | SK-OV-3 > 100 µM | SW-620 > 100 µM | SNB-75 > 100 µM | EKVX > 100 µM | KM12 > 100 µM | DLD-1 > 100 µM | SF-295 > 100 µM | U-251 > 100 µM | 786-0 > 100 µM | HOP-62 > 100 µM | HOP-18 > 100 µM

NC(=O)C(=Cc1ccc(C(O)P(=O)(O)O)cc1)C(N)=O (stereo unspecified)
inactive: CAKI-1 > 100 µM | SN12C > 100 µM | XF498 > 100 µM | OVCAR-5 > 100 µM | TK-10 > 100 µM | SK-OV-3 > 100 µM | SW-620 > 100 µM | SNB-75 > 100 µM | EKVX > 100 µM | KM12 > 100 µM | DLD-1 > 100 µM | SF-295 > 100 µM | U-251 > 100 µM | 786-0 > 100 µM | HOP-62 > 100 µM | HOP-18 > 100 µM

COC1CC(O[C@H]2CC[C@@]3(C)C(=CCC4(O)C3CCC35C(=O)OC6(C)O[C@@]43CCC65)C2)OC(C)C1O (stereo partly specified)
inactive: NCI-H226 > 100 µM | CAKI-1 > 100 µM | SN12C > 100 µM | XF498 > 100 µM | OVCAR-5 > 100 µM | TK-10 > 100 µM | SK-OV-3 > 100 µM | SNB-75 > 100 µM | EKVX > 100 µM | KM12 > 100 µM | DLD-1 > 100 µM | SF-295 > 100 µM | U-251 > 100 µM | 786-0 > 100 µM | HOP-62 > 100 µM | HOP-18 > 100 µM

C[C@@H](C1CCC2C3C(=CC(=O)[C@@]21C)[C@H](C)[C@]1(CCC(=O)O1)C1OC31)[C@H]1C[C@]2(C)O[C@@](C)(O1)OC2(C)C (stereo partly specified)
inactive: CAKI-1 > 100 µM | SN12C > 100 µM | XF498 > 100 µM | TK-10 > 100 µM | SK-OV-3 > 100 µM | SW-620 > 100 µM | EKVX > 100 µM | DLD-1 > 100 µM | SF-295 > 100 µM | U-251 > 100 µM | 786-0 > 100 µM | HOP-18 > 100 µM
